Measured values reported in publication PMC10325900, “A conserved motif in the disordered linker of human MLH1 is vital for DNA mismatch repair and its function is diminished by a cancer family mutation” (Nucleic Acids Research, 2023).
No end group written: not given here.

What was measured:
MLH1-PMS2 = test: Comparison of MMR restoration with theoretical binding curves of peptide to protein; parameters: species or system human; settings: theoretical binding curves at 11.1 nM MLH1; not a direct binding measurement; read-out: KD whose theoretical fraction of peptide binding to a protein corresponds to the degree of MMR restoration
Protocol: Figure 4. Reaction of DNA mismatch repair to addition of ConMot peptide. (A) Nuclear extract of MLH1-proficient HEK293 cells was used for performing the DNA mismatch repair reaction. Four reactions were undertaken, with two reactions supplemented with either 7.5 μM or 75 μM ConMot-32 peptide. A negative control reaction was performed by omitting the 37°C repair incubation. (B) MMR reactions were performed with nuclear extract of MLH1-deficient HEK293T cells supplemented with extract of cells transfected either with wildtype MLH1-PMS2 (positive control) or with MLH1-ΔConMot-PMS2. […] (C) The concentration-dependence of the MMR-activating effect of the ConMot-32 peptide observed in (B) was measured over a concentration range from 1–75 μM. […] Into this diagram, the average MMR activities (and standard deviations) measured in >3 of the experiment exemplarily shown in C were introduced as bars at ConMot-32 peptide concentrations of 1, 2.5, 7.5, 18 and 75 μM.
We investigated the effect of the ConMot peptide more closely by titrating the required peptide concentrations for activation. We determined that the mismatch repair reactions performed in this study contained approximately 280 fmol MLH1 (Supplementary Figure S4A and B), which is in good agreement with previous quantifications of MLH1-PMS2 in cells and extracts ([96]). […]
B. Immunoblot band intensities were determined. […]

[1] = tested on: DNA mismatch repair reaction of MMR-proficient HEK293 cell extract; test: MMR competition test with nuclear extract of MMR-proficient HEK293 cells; assay type: biochemical, human; settings: up to 75 μM ConMot-32 peptide
Protocol: Mismatch repair activity was assessed as described in detail before ([79],[81]) (Supplementary Figure S3). […] Mismatched DNA plasmid substrate (Supplementary Figure S3) prepared according to previously published procedures ([81–83]) was added, and reactions in a final volume of 25 μl were incubated at 37°C for 15 min. Repair efficiency was scored by purifying the mismatched DNA plasmid from the reaction and assessing the fraction of homoduplex sequence by restriction digestion of the mismatched site using EcoRV. The substrate was additionally linearized with AseI.
For complementation assays with peptide, the indicated peptide(s) were used at stock concentrations of 50 or 500 μM in HEPES–KOH 20 mM pH 7.6 and supplemented to the MMR reactions. […]
Figure 4. […] (C) The concentration-dependence of the MMR-activating effect of the ConMot-32 peptide observed in (B) was measured over a concentration range from 1–75 μM. […] Into this diagram, the average MMR activities (and standard deviations) measured in >3 of the experiment exemplarily shown in C were introduced as bars at ConMot-32 peptide concentrations of 1, 2.5, 7.5, 18 and 75 μM. […]
In parallel, the single- strand nick is ligated. […] 40- 80% absolute repair, determined as signal intensities of the repair bands divided by sum of […]

[2] = Circular dichroism (CD) of ConMot peptide; assay type: physicochemical; settings: 33 μM peptide, 20 mM Na-phosphate pH 7.2, 20°C, 190–300 nm, three scans, 1 mm light path
Protocol: A blank was measured with buffer. […] A blank with buffer only was subtracted.

**Q.** Which Kd (MLH1-PMS2) does the source give for “SGSSDKVYAHQMVRTDSREQKLDAFLQPLSKP [ConMot-32]” here?
**A.** ~7.5 µM

**Q.** What about the “interference with regular DNA mismatch repair” value ([1]; listed as ConMot peptide) of the same sequence?
**A.** did not detectably interfere

**Q.** And the “interference with regular DNA mismatch repair” value ([1]; listed as ConMot-peptide)?
**A.** not attenuated

**Q.** And the “secondary structure formation by circular dichroism” value [2]?
**A.** Neither investigation provided evidence for secondary structure formation
